Measurements: patent US10408813B2, “Biosensor for detecting intracellular cyclic adenosine monophosphate (cAMP) and uses thereof” (Academia Sinica, priority 2015, dated 2019)

Assays:
[1] = test system: adenylyl cyclase; experiment: BRET assay with RG-cAMP sensor, adenylyl cyclase activation by forskolin
[2] = molecular target: T1, receptors for GIP (Rattus norvegicus, UniProt P43219); experiment: BRET cAMP response assay in RINm5F cells, GIP receptor; assay type: cell-based; details: 5 uM antagonist (FIG. 3B)
T1 sequence (P43219 19-455): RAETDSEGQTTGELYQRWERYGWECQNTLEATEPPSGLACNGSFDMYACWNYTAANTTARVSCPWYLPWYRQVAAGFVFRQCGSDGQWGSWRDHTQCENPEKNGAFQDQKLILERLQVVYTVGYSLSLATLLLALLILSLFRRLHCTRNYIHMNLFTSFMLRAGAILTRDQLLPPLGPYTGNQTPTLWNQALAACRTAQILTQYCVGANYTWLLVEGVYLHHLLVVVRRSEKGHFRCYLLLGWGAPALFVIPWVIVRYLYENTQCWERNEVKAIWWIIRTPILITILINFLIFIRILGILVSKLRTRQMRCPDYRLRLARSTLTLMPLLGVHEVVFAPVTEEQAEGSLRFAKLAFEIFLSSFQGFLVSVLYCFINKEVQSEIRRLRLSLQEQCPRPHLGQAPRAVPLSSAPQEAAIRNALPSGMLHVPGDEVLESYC

[3] = molecular target: GLP-1R (UniProt P01275+P32301); experiment: BRET cAMP response assay in RINm5F cells, GLP-1R-mediated cAMP production; assay type: cell-based, rat; details: for effect on dose response curve / potency of GLP-1 (7-36) amide: lipids at concentrations indicated in FIG. 4C-E (ODA 72 uM); for effect on dose response curve of GLP-1 (7-36) amide: OA and LA at 106 and 107 uM, respectively; for effect on cAMP responses to 200 μM of GLP-1 (7-36) amide: 9 uM OEA or 8.4 uM 2-OG; for effect on dose-response curve for GLP-1 (7-36) amide to stimulate cAMP production: lipid at 9 to 8 uM; for effect on potency of Ex-4 to stimulate cAMP production: lipid up to 27 uM
[4] = molecular target: T2, GLP-1 (7-36) amide (Homo sapiens, UniProt P01275); experiment: Limited trypsin digestion of GLP-1 (7-36) amide, residual activity by cAMP response in RINm5F cells
T2 construct: purchased LifeTein

[5] = molecular target: T3, His-tagged GLP-1 (7-36) (Homo sapiens, UniProt P01275); experiment: GLP-1 and OEA binding assay (3H-OEA, Cu-NTA resin capture)
T3 construct: purchased LifeTein
Protocol: Specific bound ^3H-OEA was obtained by subtracting the supernatant ^3H-OEA of reaction from supernatant ^3H-OEA of reaction without GLP-1. […] Copper-nitrilotriacetate resin (Cu^++-NTA), 3 uL in 30 uL of DPBS, was added to capture all the His-tagged GLP-1 (up to 60 uM in 80 uL reaction), further incubated with rotation at RT for 30 min. […] Bound ^3H-OEA=[supernatant ^3H-OEA of nonspecific binding]−[supernatant ^3H-OEA of total binding]. […] The bound ^3H-OEA and free ^3H-OEA were separated as described above, and specific binding was calculated; Bound ^3H-OEA=[supernatant ^3H-OEA of nonspecific binding reaction]−[supernatant ^3H-OEA in the total binding reaction]

[6] = molecular target: receptors for glucagon (Rattus norvegicus, UniProt P30082); experiment: BRET cAMP response assay in RINm5F cells, glucagon receptor; assay type: cell-based; details: 100 uM antagonist (FIG. 3C)
[7] = molecular target: RG-cAMP sensor in RINm5F cells (Homo sapiens, UniProt O95398, F824A/R193G/T823A); experiment: BRET assay with RG-cAMP sensor, titration of membrane-permeable cAMP analog
[8] = molecular target: T4, GLP-1R-V2R membrane (Homo sapiens, UniProt P01275+P43220); experiment: Receptor binding assay, saturation binding of 125I-GLP-1(7-36)
T4 construct: the first 440 amino acids of the GLP-1R (Met1 to Thr440); expressed in transfected cells; host or cells: U2OS osteosarcoma cells stably co-expressing β-arrestin2:GFP; membrane preparation

[9] = molecular target: T5, trypsin (Sus scrofa, UniProt P00761); experiment: In vitro assay of trypsin activity in the presence of OEA; assay type: biochemical; details: 92 uM OEA, 0.000125% trypsin
T5 construct: purchased Life Technologies (trypsin-EDTA, inferred); assay kit from BioVision
Protocol: To determine whether OEA affects trypsin activity, we used the Trypsin Activity Colorimetric Test Kit (BioVision, Milpitas, Calif., USA). Briefly, 2 μL substrate was added to a well in 96-well plate containing 48 μL 0.000125% trypsin in the presence or absence of 92 uM OEA. Reactions were conducted at room temperature, and the extent of cleavage was monitored by real-time reading of optical density (OD) at 405 nm

[10] = molecular target: T6, GPR119 (Homo sapiens, UniProt Q8TDV5); details: literature (34); read-out: reported EC50 to activate GPR119; cited from earlier work
T6 sequence (Q8TDV5 1-335): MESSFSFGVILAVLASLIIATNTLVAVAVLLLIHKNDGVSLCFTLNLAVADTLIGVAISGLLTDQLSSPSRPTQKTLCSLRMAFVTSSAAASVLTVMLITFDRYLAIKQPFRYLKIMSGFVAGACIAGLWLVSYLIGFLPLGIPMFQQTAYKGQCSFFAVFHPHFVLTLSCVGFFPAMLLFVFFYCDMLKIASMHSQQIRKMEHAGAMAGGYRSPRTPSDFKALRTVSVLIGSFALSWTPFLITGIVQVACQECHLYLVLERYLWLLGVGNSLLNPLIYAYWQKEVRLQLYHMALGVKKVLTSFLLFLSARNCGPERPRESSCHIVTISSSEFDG

[11] = test system: RINm5F cells; experiment: BRET cAMP response assay, lipids present alone; assay type: cell-based, rat; details: 28 μM for 2-OG
[12] = RINm5F cells stably expressing RG-cAMP sensor

Chain of GLP-1R (P32301 22-463, one chain of several): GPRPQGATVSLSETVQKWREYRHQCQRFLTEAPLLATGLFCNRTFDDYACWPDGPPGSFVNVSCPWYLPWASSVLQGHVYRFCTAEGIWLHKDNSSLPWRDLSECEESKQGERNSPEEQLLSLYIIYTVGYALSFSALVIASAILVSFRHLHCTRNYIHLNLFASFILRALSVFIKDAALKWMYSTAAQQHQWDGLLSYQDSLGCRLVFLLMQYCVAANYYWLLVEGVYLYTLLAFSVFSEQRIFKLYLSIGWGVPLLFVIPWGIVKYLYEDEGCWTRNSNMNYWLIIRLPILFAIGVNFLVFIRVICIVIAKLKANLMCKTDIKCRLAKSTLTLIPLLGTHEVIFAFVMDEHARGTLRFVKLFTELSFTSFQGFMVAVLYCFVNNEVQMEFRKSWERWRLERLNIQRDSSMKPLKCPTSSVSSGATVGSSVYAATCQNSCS
T4 sequence (P43220 with tags, fused parts or gaps limits assumed, one chain of several): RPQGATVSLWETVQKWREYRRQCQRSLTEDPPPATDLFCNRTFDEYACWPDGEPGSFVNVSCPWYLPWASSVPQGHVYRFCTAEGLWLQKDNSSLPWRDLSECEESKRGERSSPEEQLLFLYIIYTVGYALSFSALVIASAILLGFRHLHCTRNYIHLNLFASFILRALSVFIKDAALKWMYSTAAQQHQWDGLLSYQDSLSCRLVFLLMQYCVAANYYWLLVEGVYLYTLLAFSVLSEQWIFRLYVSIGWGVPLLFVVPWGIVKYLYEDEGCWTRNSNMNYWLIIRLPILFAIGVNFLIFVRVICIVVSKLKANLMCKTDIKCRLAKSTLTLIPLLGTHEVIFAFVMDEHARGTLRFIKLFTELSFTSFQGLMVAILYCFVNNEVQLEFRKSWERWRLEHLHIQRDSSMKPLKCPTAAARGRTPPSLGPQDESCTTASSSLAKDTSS
T5 sequence (P00761 9-231): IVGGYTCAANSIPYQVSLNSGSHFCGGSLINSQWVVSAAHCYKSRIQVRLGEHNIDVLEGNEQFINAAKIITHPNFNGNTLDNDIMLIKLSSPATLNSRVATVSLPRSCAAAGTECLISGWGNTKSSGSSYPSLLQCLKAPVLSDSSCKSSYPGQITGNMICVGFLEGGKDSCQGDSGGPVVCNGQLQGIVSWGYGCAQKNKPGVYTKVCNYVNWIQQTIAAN
Chain of receptors for glucagon (P30082 27-485): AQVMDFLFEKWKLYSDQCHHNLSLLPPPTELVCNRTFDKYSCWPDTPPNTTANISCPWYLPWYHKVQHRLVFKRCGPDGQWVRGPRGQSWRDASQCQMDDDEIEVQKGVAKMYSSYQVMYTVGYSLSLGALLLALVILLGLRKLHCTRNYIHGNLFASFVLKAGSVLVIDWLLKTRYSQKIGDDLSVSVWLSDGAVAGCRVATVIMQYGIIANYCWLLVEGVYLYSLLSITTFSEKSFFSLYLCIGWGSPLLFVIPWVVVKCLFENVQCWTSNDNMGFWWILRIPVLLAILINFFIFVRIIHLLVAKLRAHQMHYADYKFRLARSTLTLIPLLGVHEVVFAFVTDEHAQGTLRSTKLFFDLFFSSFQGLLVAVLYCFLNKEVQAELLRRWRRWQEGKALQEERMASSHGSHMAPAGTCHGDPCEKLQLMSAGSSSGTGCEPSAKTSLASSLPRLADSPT

Compound: C=C[C@@]1(C)CC(=O)[C@]2(O)[C@@]3(C)[C@@H](O)CCC(C)(C)[C@@H]3[C@H](O)[C@H](OC(C)=O)[C@@]2(C)O1 [forskolin]
- EC50 for reduction of BRET ratio [1, 12]: 0.07 µM
- BRET ratio reduction, basal cAMP level to maximally stimulated ([1]; maximal forskolin stimulation): 0.3 unit

Compound: GIP(8-42): GIP antagonist, SEQ ID NO: 14 (SDYSIAMDKIHQQDFVNWLLAQKGKKNDWKHNITQ; GIP 8-42)
- effect of antagonist on cAMP response to GIP [2]: curtailed

Compound: CCCCCCCCCCCCCCCCCC(=O)NCCO [SEA, stearoylethanolamide]
- effect on dose response curve / potency of GLP-1 (7-36) amide [3]: did not affect GLP-1 potency
- effect on trypsin digestion of GLP-1 (7-36) amide ([4]; 1 uM to 92 uM lipid, 0.00067% trypsin): did not affect trypsin digestion
- effect on binding of 3H-OEA to His-tagged GLP-1(7-36) ([5]; competition assay): did not affect the binding

Compound: CC/C=C\C/C=C\C/C=C\CCCCCCCC(=O)O [ALA, α-linolenic acid]
- effect on dose response curve / potency of GLP-1 (7-36) amide [3]: did not show such an effect

Compound: CCCCC/C=C\C/C=C\CCCCCCCC(=O)O [LA, linoleic acid]
- effect on dose response curve of GLP-1 (7-36) amide [3]: consistently but mildly left-shifted

Compound: Cl.c1ccc(C2CCCC2NC2=NCCCCCCCCCCC2)cc1 (stereo not shown) [MDL-12,330A]
- effect on forskolin-elicited BRET response ([1]; 250 μM inhibitor): eliminated

Compound: CCCCCCCC/C=C\CCCCCCCC(=O)NCCc1ccc(O)c(O)c1 [ODA, n-oleoyldopamine]
- effect on dose response curve / potency of GLP-1 (7-36) amide [3]: did not affect GLP-1 potency

Compound: Ex-9: GLP-1 receptor antagonist exendin 9 [reference compound]
- effect of antagonist on cAMP response to GLP-1 (7-36) amide ([3]; 500 nM antagonist (FIG. 3A)): curtailed
- lipid enhancement and cAMP responses with GLP-1 receptor signaling blocked ([3]; 500 nM exendin 9, GLP-1 (7-36) amide with OEA or 2-OG): barely detectable

Compound: [des-His1,Glu9]-glucagon amide: glucagon antagonist
- effect of antagonist on cAMP response to glucagon [6]: curtailed

Compound: COC1C2OP(=O)(OCOC(C)=O)OCC2OC1n1c(Br)nc2c(N)ncnc21 (stereo not shown) [8-Br-2-O-Me-cAMP-AM, 8-Br-2′-O-Me-cAMP-AM]
- concentration at which half maximal reduction of BRET ratio is elicited (EC50) [7, 12]: 2.6 µM
- BRET ratio reduction ([7]; concentration change from 0.2 μM to 50 μM): 0.45 unit

Compound: CCCCCCCCCCCCCCCCCC(=O)O [SA, stearic acid]
- effect on dose response curve / potency of GLP-1 (7-36) amide [3]: did not show such an effect

Compound: CCCCCCCC/C=C\CCCCCCCC(=O)O [OA, oleic acid]
- effect on dose response curve of GLP-1 (7-36) amide [3]: consistently but mildly left-shifted

Compound: CCCCCCCCCCCCCCCC(=O)NCCO [PEA, palmitoylethanolamide]
- effect on dose response curve / potency of GLP-1 (7-36) amide [3]: did not affect GLP-1 potency

Compound: [3H]/C(CCCCCCCC)=C(\[3H])CCCCCCCC(=O)NCCO [^3H-OEA, Oleoyl [9,10-^3H]ethanolamide, reference compound]
- concentration of 3H-OEA to achieve half-maximal binding ([5]; 0.1 uM His-tagged GLP-1 (7-36), estimated): 0.28 ± 0.07 µM
- specific binding to GLP-1 receptor [8]: not able to observe detectable specific binding

Compound: CCCCCCCC/C=C\CCCCCCCC(=O)NCCO [OEA, oleoylethanolamide]
- effect on innate trypsin activity [9]: does not affect the innate trypsin activity
- effect on cAMP responses to 200 μM of GLP-1 (7-36) amide [3]: remarkably enhanced
- effect on dose-response curve for GLP-1 (7-36) amide to stimulate cAMP production [3]: markedly left-shifted
- effect on potency of Ex-4 to stimulate cAMP production [3]: unaltered
- factor of reduction of residual activity of GLP-1 (7-36) amide after trypsin digestion ([4]; 0.00067% trypsin, OEA increased from 1 uM to 92 uM): more than 40
- factor of reduction of GLP-1 activity after trypsin cleavage ([4]; trypsin cleavage in the presence of 92 uM OEA): more than 300
- EC50 [10]: 2.9 µM
- cAMP response to lipid present alone [11]: did not elicit cAMP responses
- Bmax of 125I-GLP-1 ([8]; in the presence of 9.2 uM OEA): 51±6.5 pmole/mg of membrane

Compound: CCCCC/C=C\C/C=C\C/C=C\CCCCC(=O)O [γ-LA, γ-linolenic acid]
- effect on dose response curve / potency of GLP-1 (7-36) amide [3]: did not show such an effect

Compound: His-tagged GLP-1 (7-36): SEQ ID NO: 6, six consecutive histidine residues tagged to the C-terminal of GLP-1 (7-36) peptide (HAEGTFTSDVSSYLEGQAAKEFIAWLVKGRHHHHHH; His-tagged GLP-1 (7-36)) [reference compound]
- concentration of GLP-1 to achieve half-maximal binding of OEA ([5]; 0.2 uM 3H-OEA, estimated): 0.16 ± 0.05 µM

Compound: CCCCCCCC/C=C\CCCCCCCC(=O)OC(CO)CO [2-OG, 2-oleoylglycerol]
- effect on cAMP responses to 200 μM of GLP-1 (7-36) amide [3]: remarkably enhanced
- effect on dose-response curve for GLP-1 (7-36) amide to stimulate cAMP production [3]: markedly left-shifted
- effect on potency of Ex-4 to stimulate cAMP production [3]: unaltered
- Ki [5]: 0.1 ± 0.03 µM
- EC50 [10]: 2.9 µM
- cAMP response to lipid present alone [11]: did not elicit cAMP responses
